The values that follow come from patent US20110052725A1, “THERAPEUTIC AGENT FOR INFECTIOUS SKIN AND MUCOSAL DISEASE” (priority 2007, published 2011).

Experiment [1] has as its system herpesvirus type 2 (HSV2 UF-strain). In words: Antiviral activity against herpesvirus type 2 (TCID50). The format is cell-based. The procedure: (§1) Each of the agents was diluted with sterile distilled water, to thereby prepare a dilution series of 1,250 ppm, 125 ppm, 12.5 ppm, 1.25 ppm and 0.125 ppm.
(§2) In order to neutralize chlorine dioxide in the agent, a 0.0025M sodium thiosulfate solution was prepared using Eagle MEM, and sterilized by filtration using a 0.22 μm membrane filter.
(§3) To each of the various concentrations of the agents (240 μl) was added virus (60 μl) and stirred, to thereby sensitize the virus with the agent, for 15, 30, 60, 120 or 180 seconds. Forty μl of virus from each reaction liquid was added to a 0.0025M sodium thiosulfate solution (360 μl), to thereby neutralize chlorine dioxide. As a virus control, one diluted with distilled water, instead of the agent, was used.
(§4) Each of the agent-treated virus liquid and the control virus liquid diluted with distilled water was neutralized with a 0.0025M sodium thiosulfate solution, and then neutralized virus (100 μl) was diluted with Eagle MEM (900 μl), to obtain a 10-fold dilution series of the treated virus.
(§5) CRFK cell (50 μl/well) was incubated in a 96-well microplate for 3 days, and the diluted virus was inoculated therein (50 μl/well, 4 well/dilution). Each cell was cultured in a CO2 incubator at 37° C. for 5 days, and CPE was observed. TCID50 was calculated based on the above-mentioned equation 1 (Kerber's formula).
The antiviral activity against herpesvirus type 2 (HSV-2, Herpes simplex virus type 2) (virus which causes mainly genital herpes, neonatal herpes, herpetic meningitis and herpetic myelitis) was measured. Substantially the same test as in Example 10 was performed, except that the herpesvirus type 2 (standard strain; UF strain) was used instead of the herpesvirus type 1.

The test system of experiment [2] is herpesvirus type 1 (HSV1 kos). Kind of experiment: Antiviral activity against herpesvirus type 1 (TCID50, CRFK cell). The format is cell-based. As to the method:
An antiviral activity against herpesvirus type 1 (HSV-1, Herpes simplex virus type 1) (virus which causes mainly herpes labialis, and also causes herpetic stomatitis, herpetic keratitis and herpes simplex encephalitis) was measured. The method will be described below.
Five-hundred ml of a culture solution of virus (herpesvirus type 1 kos) which had been cultured with CRFK cell (feline kidney cell) was centrifuged at 3,000 rpm for 3 hours, and to the sediment was added 4 ml of distilled water to thereby prepare a viral suspension. The viral suspension was sterilized by filtration using a 0.45 μm membrane filter, and cryopreserved at −80° C. until its usage.
as §1, §2, §3, §4, §5

Marks after values point to notes of the source that are not given here. Where only a bound is given, the exact number is not on record here.

As to `OCl` [Sodium hypochlorite], the “Viral infectivity titer TCID50” value in experiment [1] (0.1 ppm, agent sensitized time 0 second) was 4.25 TCID50/50 μL unit (10^n); in experiment [1] (0.1 ppm, agent sensitized time 30 second) it was 4.25 TCID50/50 μL unit (10^n); in experiment [1] (0.1 ppm, agent sensitized time 60 second) it was 4.25 TCID50/50 μL unit (10^n); in experiment [1] (0.1 ppm, agent sensitized time 120 second), 4.25 TCID50/50 μL unit (10^n); in experiment [1] (1 ppm, agent sensitized time 0 second) it was 4.25 TCID50/50 μL unit (10^n); in experiment [1] (1 ppm, agent sensitized time 30 second), 4 TCID50/50 μL unit (10^n). The “Viral infectivity titer TCID50” value in experiment [1] (1 ppm, agent sensitized time 60 second) was 3.75 TCID50/50 μL unit (10^n); in experiment [1] (1 ppm, agent sensitized time 120 second) it was 3.75 TCID50/50 μL unit (10^n); in experiment [1] (10 ppm, agent sensitized time 0 second), 4.25 TCID50/50 μL unit (10^n); in experiment [1] (10 ppm, agent sensitized time 30 second), 0 TCID50/50 μL unit (10^n); in experiment [1] (10 ppm, agent sensitized time 60 second) it was 0 TCID50/50 μL unit (10^n); in experiment [1] (10 ppm, agent sensitized time 120 second), 0 TCID50/50 μL unit (10^n). In addition, the “Reduction of viral infectivity titer” value in experiment [2] (1 ppm or less) was “apparent reduction of the infectivity titer was not observed”; in experiment [2] (10 ppm, 180 seconds), at most 1 log; in experiment [2] (discussion, compared with chlorine dioxide 10 ppm for 15 seconds) it was “apparent reduction of the infectivity titer was not observed”.
